Entries after “also recorded” stand apart in the source; their conditions may differ.

Consider one compound from patent US8093060B2, “Multisite phosphorylated peptide (protein) recognizing compound and detection method, imaging method, alzheimer's disease diagnosing method and reagent kit using the same” (Canon Kabushiki Kaisha, priority 2008, dated 2012).

In experiment [1] the test system is hippocampal tissues from the normal human brain. In words: Fluorescence staining of normal human brain hippocampal tissue sections. As to the method:
To investigate whether an excessively phosphorylated tau protein in brain tissues can be detected, a fluorescence staining experiment of hippocampal tissue sections from a human brain affected by Alzheimer (AD) and a normal brain was performed using BODIPY-Zn(Dpa). Specifically, hippocampal tissue sections from the AD-affected human brain or the normal brain were deparaffinized (xylene immersion for 5 min was repeated three times, then each section was immersed in 100%, 90%, 80% and 70% aqueous ethanol solution in stages [for 2 min each], and finally washed twice with water for 5 min), lipofuscin was removed (washed twice with PBS for 2 min, immersed in 0.25% by weight permanganate potassium/PBS for 30 min, washed twice with PBS for 2 min, immersed in 1% by weight oxalic acid and 1% by weight potassium pyrosulfate/PBS for 6 min and finally washed twice with PBS for 2 min), trypsin treatment was performed (washed twice with PBS-Tween at room temperature for 2 min and 0.05% Trypsin/PBS at 37° C. for 15 min), and finally washed twice with PBS-Tween at room temperature for 5 min, and costaining was performed using an antibody and BODIPY-Zn(Dpa). First, blocking was performed with 10% goat serum (37° C., 30 min) to remove 10% goat serum, then a primary antibody was added, and a reaction was performed at 4° C. for 17 to 19 h. […]

The target of experiment [2] is T1, Tau1P (Homo sapiens, UniProt P10636).
T1 construct: made in house; host or cells: chemical solid-phase synthesis
Briefly: Fluorescence titration of BODIPY-Zn(Dpa) with Tau1P. The class given is binding. As to the method:
(§1) The phosphorylated peptide-recognizing ability of BODIPY-Zn(Dpa) compound 9 (hereinafter referred to as BODIPY-Zn(Dpa)) was evaluated by measuring fluorescence spectra. Measurement was performed under the following conditions: [BODIPY-Zn(Dpa)]=5 μM; pH 7.2; 50 mM HEPES buffer; and 25° C. The excitation wavelength was λex=530 nm. […] When Tau2P was excessively added, this change reached saturation. The […] calculated from the fluorescence changes was 2.75×10^5 M^−1.

The target of experiment [3] is T2, phosphorylated tau aggregate (p-Tau) (Homo sapiens, UniProt P10636).
T2 construct: made in house; host or cells: Escherichia coli
In words: Fluorescence staining of phosphorylated tau aggregate prepared in vitro. It is filed as binding. The procedure:
Tau proteins (8 μM) expressed by Escherichia coli and heparin (1.6 μM) were incubated at 37° C. for 20 days to prepare a tau aggregate. A phosphorylated tau aggregate was similarly prepared using tau proteins phosphorylated with GSK-3β in vitro. The results of Pro-Q diamond staining after performing SDS-PAGE confirmed that the in-vitro phosphorylation was performed with a phosphorylation degree of 6 mol P/mol Tau.
10 μM BODIPY-Zn(Dpa) or 10 μM thioflavine T (may be referred to as ThT) were added to the prepared tau aggregate or phosphorylated tau aggregate. After the addition, the mixture was washed twice with 0.5 mM Zn(NO3)2, and a suspension (0.5 μL) of the stained phosphorylated tau aggregate was air-dried on a cover glass and observed under a confocal laser scanning microscope (OLYMPUS FV-1000, Obj. lens 100×).

Experiment [4] has as its system tau proteins on a tissue section. Briefly: Fluorescence staining of AD human hippocampal tissue sections treated with dephosphorylating enzyme (PP2A). The following applies: PP2A 0.5 units/50 μL, 37° C., 24 h. As to the method:
To investigate whether an excessively phosphorylated tau protein in brain tissues can be detected, a fluorescence staining experiment of hippocampal tissue sections from a human brain affected by Alzheimer (AD) and a normal brain was performed using BODIPY-Zn(Dpa). […]
Before staining, the sections were treated with a dephosphorylating enzyme (PP2A: 0.5 units/50 μL, 37° C., 24 h), and a fluorescence staining experiment for hippocampal tissue sections was performed according to the procedure in Example 2(12). […] Fluorescence dots observed in the BODIPY-Zn(Dpa) staining and the AT8 staining disappeared after dephosphorylating tau proteins on tissues with PP2A. […] The fluorescence dots in the BODIPY-Zn(Dpa) staining were detected depending on the phosphorylation of tau proteins.

For experiment [5], the target named is T3, Tau2P (Homo sapiens, UniProt P10636).
T3 construct: made in house; host or cells: chemical solid-phase synthesis
In words: Fluorescence titration of BODIPY-Zn(Dpa) with Tau2P. It is filed as binding. The settings on record: Tau 2P (i, i+4). The procedure: as §1

The target of experiment [6] is T4, tau aggregate (Homo sapiens, UniProt P10636).
T4 construct: made in house; host or cells: Escherichia coli
In words: Fluorescence titration of tau aggregate against 100 nM BODIPY-Zn(Dpa). It is filed as binding. The settings on record: tau 0 to 320 nM against 100 nM BODIPY-Zn(Dpa), 37° C., 60 min. The procedure: The ranges of concentrations at which a phosphorylated tau aggregate, a tau aggregate, and an amyloid β aggregate interact with BODIPY-Zn(Dpa) were examined by titration. Titration was performed in the range of tau concentrations of 0 to 320 nM (0 to 14 μg/mL) against 100 nM of BODIPY-Zn(Dpa). Using a solvent obtained by adding 10% DMSO and 10 μM Zn(NO3)2 to HBS (10 mM HEPES (pH 7.4), 150 mM NaCl), the solution was incubated at 37° C. for 60 min, and fluorescence was measured (excitation wavelength, 490 nm; fluorescence wavelength, 545 nm).

For experiment [7], the target named is T5, phosphorylated tau aggregate (Homo sapiens, UniProt P10636).
T5 construct: made in house; host or cells: Escherichia coli
In words: Fluorescence titration of BODIPY-Zn(Dpa) against phosphorylated tau aggregate (EC50). The class given is binding. As to the method: BODIPY-Zn(Dpa) was titrated against a phosphorylated tau aggregate, a tau aggregate, and an amyloid β aggregate to obtain EC50 (a probe concentration at which a half value of the maximum change (ΔFmax) in fluorescence intensity is observed). BODIPY-Zn(Dpa) was titrated against an aggregate at a predetermined concentration (1 μg/mL), and changes in fluorescence intensity at each concentration (ΔF) were plotted. Using a solvent obtained by adding 10% DMSO and 100 μM Zn(NO3)2 to HBS (10 mM HEPES (pH 7.4), 150 mM NaCl), the solution was incubated at 37° C. for 30 min, and fluorescence was measured (excitation wavelength, 490 nm; fluorescence wavelength, 545 nm).

T5 sequence (P10636 1-441 isoform P10636-8): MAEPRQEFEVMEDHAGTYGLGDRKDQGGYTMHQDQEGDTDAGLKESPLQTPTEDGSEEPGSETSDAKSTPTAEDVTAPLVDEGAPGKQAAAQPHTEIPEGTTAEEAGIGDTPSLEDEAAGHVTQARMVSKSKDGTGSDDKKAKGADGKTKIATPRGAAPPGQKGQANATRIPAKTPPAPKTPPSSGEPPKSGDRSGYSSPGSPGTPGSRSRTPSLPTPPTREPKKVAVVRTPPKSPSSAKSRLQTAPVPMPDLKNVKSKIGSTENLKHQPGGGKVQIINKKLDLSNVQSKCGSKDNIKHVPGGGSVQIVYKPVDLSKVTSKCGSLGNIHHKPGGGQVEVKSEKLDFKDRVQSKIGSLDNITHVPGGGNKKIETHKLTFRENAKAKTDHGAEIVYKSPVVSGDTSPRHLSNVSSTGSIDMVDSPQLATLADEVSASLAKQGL
T2 sequence (P10636 1-441 isoform P10636-8): as above
T4 sequence (P10636 1-441 isoform P10636-8): as above

One may read the EC50 as the concentration needed to bring the measured effect to its halfway point. As to `CC1=C(c2ccc(CN(C)Cc3ccccn3)nc2)C(C)=[N+]2C1=C(c1cc(OCCOCCOCCO)cc(OCCOCCOCCO)c1)c1c(C)c(-c3ccc(CN(C)Cc4ccccn4)nc3)c(C)n1[B-]2(F)F.O=[N+]([O-])[O-].O=[N+]([O-])[O-].O=[N+]([O-])[O-].O=[N+]([O-])[O-].[Zn+2].[Zn+2]` [BODIPY-Zn(Dpa)], in experiment [1], the fluorescence in tissue entry is listed as “is not observed”. Further, the “I/I0 - 1 at saturation” value in experiment [2] (Tau 1P) is recorded as “No change”; in experiment [5] (BODIPY-Zn(Dpa) 5 μM, pH 7.2, 25° C.), 0.55. Also, the “fluorescence intensity change on addition of peptide” value in experiment [2] (Tau1P, monophosphorylated) is “no major change was observed; also recorded: does not change”. Moreover, the staining of aggregate entry in experiment [3] (p-Tau in the presence of pyrophosphoric acid (PPi)) is “did not stain the aggregate”; in experiment [3] (p-Tau, 10 μM dye) it was “could bind to and stain the p-Tau aggregate”. For the same compound, in experiment [4], the “fluorescence dots in staining image after PP2A treatment” value was “disappeared”. Also, the “fluorescence intensity after PP2A treatment compared with before” value in experiment [4] is “significantly decreased”. The Association constant in experiment [5] (calculated from fluorescence changes) was 275000 M⁻¹. For the same compound, the “concentration range of interaction” value in experiment [6] is given as “in the range of nM”. This compound had a half-maximal effective concentration (EC50) in experiment [7] (aggregate 1 μg/mL, 37° C., 30 min) of 9.1 nM. In addition, the “affinity (EC50) for phosphorylated tau aggregate relative to amyloid β aggregate” value in experiment [7] (higher than for the amyloid β aggregate) is 70 times. The “affinity (EC50) for phosphorylated tau aggregate relative to tau aggregate” value in experiment [7] (higher than for the tau aggregate) turned out to be 9 times.
